# According to US6803475B2, “Fluorous tagging compounds and methods of use thereof” (University of Pittsburgh, priority 2000, dated 2004):
# What was measured:
# Format in all cases: physicochemical
# [1] = Stability under protic acidic conditions in 5% p-TsOH/MeOH
# Procedure: (§1) The stability of these alkoxysilyl ethers appeared to be determined by the steric bulk around the silicon atom. While 34a was not very stable (t1/2˜6 min) under the acidic reaction conditions, 34b (t1/2˜4 h) was moderately stable, and the tert-butyl-phenyl-1H,1H,2H,2H-heptadecafluorodecyloxysilyl ether 37a (t1/2>>6 h) was very stable. […] As a result of the enhanced electrophilicity of the silicon atom in bis-alkoxysilyl ethers, the latter are generally more labile toward nucleophiles and bases than either the TBDPS or the tert-butyldimethylsilyl (TBDMS) groups. […] In contrast, the stability under protic acidic conditions in 5% p-TsOH/MeOH (t1/2˜40 min) is more limited.
# [2] = Stability of fluorous alkoxysilyl ethers in CH2Cl2/trifluoroacetic acid (5%), remaining ether analysed by LC-MS; conditions: aliquots quenched with MeOH/pyridine (20:1)
# Procedure: Fluorous alkoxysilyl ethers (34a,b, 37a) were each dissolved in a mixture of CH2Cl2/trifluoroacetic acid (5%), and aliquots of these solutions were quenched with MeOH/pyridine (20:1). The quenched reaction mixtures were analyzed for remaining 34a,b and 37a by LC-MS (Liquid chromatography-mass spectrometry). Reactions and quenching were performed on a HP 7868 solution phase synthesizer. Analysis of quenched samples was done with a HP 1100 series LC/MS. Samples eluted were compared with unreacted control samples. (Rt [min]: 2.6 (34a), 2.9 (34b), 2.3 (37a); Novapak C18, 3.9×150 mm, 1.2 mL/min, MeOH as eluent).
# as §1
# Reactions and quenching were performed on a HP 7868 solution phase synthesizer. […]
# [3] = Stability in THF-d8 / 0.25 M NaOD (3:1), determined by 1H NMR; conditions: THF-d8 and 0.25 M NaOD (3:1)
# Procedure: as §1
structure (smiles),measurement,setting,value
"CC(C)(C)[Si](OCCC(F)(F)C(F)(F)C(F)(F)C(F)(F)C(F)(F)C(F)(F)C(F)(F)C(F)(F)F)(OC1CCCCC1)c1ccccc1 (stereo not drawn) [37a, tert-butyl-phenyl-1H,1H,2H,2H-heptadecafluorodecyloxysilyl ether]",t1/2 under protic acidic conditions,[1],~0.667 h
same,t1/2 under the acidic reaction conditions,[2],> 6 h
same,t1/2 in mildly basic aqueous medium,[3],48 h
